This passage reports class results from patent US20050197350A1, “Novel quinoline, tetrahydroquinazoline, and pyrimidine derivatives and methods of treatment related to the use thereof” (TAISHO PHARMACEUTICAL CO., LTD., priority 2003, published 2005).

In the test the test system is MCH receptors. Description: MCH receptor activity class (method not given). The following applies: activity class 1-3: percent of control at 10^-7 M or IC50.

Consider `CN(C)c1nc(N[C@H]2CC[C@@H](NC(=O)Oc3ccc4ccccc4c3)CC2)nc2c1CCCC2` [compound 1589], for which the class is given as 3 (Class 3 The value of percent of control at 10^−7 M was more than 60% or the value of IC50 was more than 200 nM.).
For `C=CCOC(=O)N[C@H]1CC[C@@H](Nc2nc3c(c(N(C)C)n2)CCCC3)CC1` [compound 1590], the class is 3 (Class 3 The value of percent of control at 10^−7 M was more than 60% or the value of IC50 was more than 200 nM.).
Consider `CN(C)c1nc(N[C@H]2CC[C@@H](NC(=O)OCc3ccccc3)CC2)nc2c1CCCC2` [compound 1591], for which the class is 3 (Class 3 The value of percent of control at 10^−7 M was more than 60% or the value of IC50 was more than 200 nM.).
The result for `CN(C)c1nc(N[C@H]2CC[C@@H](NC(=O)Oc3ccccc3)CC2)nc2c1CCCC2` [compound 1592] reads 3 (Class 3 The value of percent of control at 10^−7 M was more than 60% or the value of IC50 was more than 200 nM.); that for `CC(C)[C@@H]1CC[C@@H](C)CC1OC(=O)N[C@H]1CC[C@@H](Nc2nc3c(c(N(C)C)n2)CCCC3)CC1` (stereo partly shown) [compound 1593], 3 (Class 3 The value of percent of control at 10^−7 M was more than 60% or the value of IC50 was more than 200 nM.); that for `Cc1ccc(OC(=O)N[C@H]2CC[C@@H](Nc3nc4c(c(N(C)C)n3)CCCC4)CC2)cc1` [compound 1594], 3 (Class 3 The value of percent of control at 10^−7 M was more than 60% or the value of IC50 was more than 200 nM.).
In the case of `COC(=O)N[C@H]1CC[C@@H](Nc2nc3c(c(N(C)C)n2)CCCC3)CC1` [compound 1595], the class was 3 (Class 3 The value of percent of control at 10^−7 M was more than 60% or the value of IC50 was more than 200 nM.).
For `CN(C)c1nc(N[C@H]2CC[C@@H](NC(=O)OCc3ccccc3Cl)CC2)nc2c1CCCC2` [compound 1596], the class was 3 (Class 3 The value of percent of control at 10^−7 M was more than 60% or the value of IC50 was more than 200 nM.).
Consider `CN(C)c1nc(N[C@H]2CC[C@@H](NC(=O)OCC3c4ccccc4-c4ccccc43)CC2)nc2c1CCCC2` [compound 1597], for which the class is listed as 3 (Class 3 The value of percent of control at 10^−7 M was more than 60% or the value of IC50 was more than 200 nM.).
Turning to `CN(C)c1nc(N[C@H]2CC[C@@H](NC(=O)OCC(Cl)(Cl)Cl)CC2)nc2c1CCCC2` [compound 1598], the class was 3 (Class 3 The value of percent of control at 10^−7 M was more than 60% or the value of IC50 was more than 200 nM.).
Regarding `CN(C)c1nc(N[C@H]2CC[C@@H](CNC(=O)OCCOCc3ccccc3)CC2)nc2c1CCCC2` [compound 1599], the class is 3 (Class 3 The value of percent of control at 10^−7 M was more than 60% or the value of IC50 was more than 200 nM.).
For the molecule `CN(C)c1nc(N[C@H]2CC[C@@H](CNC(=O)OCC(C)(C)C)CC2)nc2c1CCCC2` [compound 1600], the class is 3 (Class 3 The value of percent of control at 10^−7 M was more than 60% or the value of IC50 was more than 200 nM.).
The result for `COc1cc(COC(=O)NC[C@H]2CC[C@@H](Nc3nc4c(c(N(C)C)n3)CCCC4)CC2)c([N+](=O)[O-])cc1OC` [compound 1601] reads 3 (Class 3 The value of percent of control at 10^−7 M was more than 60% or the value of IC50 was more than 200 nM.).
For `CN(C)c1nc(N[C@H]2CC[C@@H](CNC(=O)Oc3cccc(C(F)(F)F)c3)CC2)nc2c1CCCC2` [compound 1602], the class was 3 (Class 3 The value of percent of control at 10^−7 M was more than 60% or the value of IC50 was more than 200 nM.).
Turning to `CN(C)c1nc(N[C@H]2CC[C@@H](CNC(=O)Oc3ccc(Br)cc3)CC2)nc2c1CCCC2` [compound 1603], the class is 3 (Class 3 The value of percent of control at 10^−7 M was more than 60% or the value of IC50 was more than 200 nM.).
Regarding `COc1ccccc1OC(=O)NC[C@H]1CC[C@@H](Nc2nc3c(c(N(C)C)n2)CCCC3)CC1` [compound 1604], the class is 3 (Class 3 The value of percent of control at 10^−7 M was more than 60% or the value of IC50 was more than 200 nM.).
